Assay results as given in US6573282B1 (priority 1995, dated 2003).
Where “and” joins values, the source holds several entries; their conditions need not be identical. Equal values may be shown once. Entries after “also recorded” stand apart in the source; their conditions may differ. Where a name gives a salt, the structure may show the parent alone. Read-outs that look alike come from different tables or passages of the source.

Assays:
[1] = tested on: formalin-induced nociception; test: Formalin-induced flinching (early and late/tonic phase), intrapaw injection; type: in vivo, rat; details: for Formalin-Induced Flinching (Late Phase) % Maximal Efficacy / Formalin-Induced Flinching (Late Phase) ED50: intrapaw; for % Antagonism of Late Phase Flinching: 10 minutes prior to formalin, mean ± SEM; for A50, antinociception in the second phase of flinching: i.paw injection
human δ receptor = human δ receptor (Homo sapiens, UniProt P41143); test: Opiate receptor binding, δ
Sequence of human δ receptor (P41143 whole entry): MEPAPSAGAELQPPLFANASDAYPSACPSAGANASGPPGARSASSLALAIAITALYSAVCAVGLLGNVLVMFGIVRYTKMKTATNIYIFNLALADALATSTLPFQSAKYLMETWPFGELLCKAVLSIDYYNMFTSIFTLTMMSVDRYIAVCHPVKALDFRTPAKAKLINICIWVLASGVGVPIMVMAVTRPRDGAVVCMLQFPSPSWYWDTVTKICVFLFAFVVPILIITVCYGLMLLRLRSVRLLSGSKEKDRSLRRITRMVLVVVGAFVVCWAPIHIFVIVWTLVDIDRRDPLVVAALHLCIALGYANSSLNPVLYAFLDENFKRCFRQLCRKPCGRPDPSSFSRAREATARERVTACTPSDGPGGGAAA

human κ receptor = human κ receptor (Homo sapiens, UniProt P41145); test: biochemical; type: binding
Sequence of human κ receptor (P41145 whole entry): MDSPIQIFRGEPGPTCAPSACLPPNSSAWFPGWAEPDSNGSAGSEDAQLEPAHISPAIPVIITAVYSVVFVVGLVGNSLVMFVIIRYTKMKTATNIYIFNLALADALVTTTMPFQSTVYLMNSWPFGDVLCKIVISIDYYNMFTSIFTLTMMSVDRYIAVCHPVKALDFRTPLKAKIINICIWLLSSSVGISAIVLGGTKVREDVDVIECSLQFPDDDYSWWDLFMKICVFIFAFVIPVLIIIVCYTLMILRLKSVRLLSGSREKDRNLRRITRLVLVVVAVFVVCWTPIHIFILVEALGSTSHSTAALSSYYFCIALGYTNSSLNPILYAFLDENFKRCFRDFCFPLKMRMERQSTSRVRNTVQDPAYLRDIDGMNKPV

human μ opiate receptors = biological target: T1, human μ opiate receptors (Homo sapiens, UniProt P35372); test: biochemical; type: binding
T1 construct: expressed in transfected cells; host or cells: CHO cells
T1 sequence (P35372 whole entry): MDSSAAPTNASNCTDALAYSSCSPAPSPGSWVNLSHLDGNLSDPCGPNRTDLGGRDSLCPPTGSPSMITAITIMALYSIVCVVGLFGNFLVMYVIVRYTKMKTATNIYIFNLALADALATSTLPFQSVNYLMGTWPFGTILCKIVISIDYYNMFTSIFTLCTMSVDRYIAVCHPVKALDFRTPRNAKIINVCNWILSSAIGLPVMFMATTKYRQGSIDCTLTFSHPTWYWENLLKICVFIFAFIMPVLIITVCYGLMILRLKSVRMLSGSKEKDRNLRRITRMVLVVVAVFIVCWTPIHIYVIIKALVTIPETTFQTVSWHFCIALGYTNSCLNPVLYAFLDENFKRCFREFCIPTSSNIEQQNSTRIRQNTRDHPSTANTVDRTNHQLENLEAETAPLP

catalepsy = test: Catalepsy: time to dismount from a 4 cm high bar after IM injection; details: for Time to Dismount from Bar (sec) Before Drug: before drug (baseline); for Time to Dismount from Bar (sec) Before Drug / Time to Dismount from Bar (sec) After Drug Treatment (15 min): individual rats and x ± SE; for catalepsy: unanesthetized rats, IM morphine 3 mg, loperamide 0.5 mg
acute pain models = details: given systemically; tail clip and hot plate tail withdrawal tests (Stahl et al., Shriver et al.); cited from earlier work
[2] = tested on: acetic acid-induced writhing; details: mice, intraparenterally (Takasuna et al. 1994); cited from earlier work
[3] = tested on: yeast-injected left hind paw; test: Randall-Selitto assay, yeast-induced inflammation, paw pressure threshold; type: in vivo, rat; details: four hours after yeast, n=10
Description: Air pressure from an air line is admitted through a needle valve to a syringe into a pressure gauge which is connected by a T-tube. The syringe is mounted with a plunger downward, to which is connected a short bullet-shaped wooden peg. The pressure is applied through the wooden tip to the plantar surface of the rat's foot at a specified rate of mm Hg per second. The end point is said to have been reached when the rat starts struggling.
Typically, rats, such as albino rats (120-170 g) of the Charles River Sprague-Dawley strain, or other laboratory strain are used. Hyperalgesia [inflammation] is produced by the injection of 0.1 ml of a 20% suspension of Brewer's yeast into the plantar surface of the rat's hind foot. Thresholds can be determined using a modified apparatus described in Winter and Flataker [(1965) J. Pharm. Exp. Ther. 148:373]. The pain threshold is measured as the pressure in mm Hg required to induce the desired response [a sharp audible squeak and/or struggle] when pressure is applied to the foot. Air pressure from an air line [or other source, such as a vice] is admitted through a needle valve to a 20 ml glass syringe and to a pressure gauge. Pressure is applied to the foot of the rat at a selected rate. The agent compound to be tested is administered typically 2 hours after the yeast injection and threshold response is determined. […] Analgesic activity was determined in terms of the percentage of inhibition of response:
Inhibition (%)=Threshold of the treated group−Threshold of the control group/Threshold of the control group×100
A Randall-Selitto assay [see, Randall et al. (1957) Arch. Int. Pharmacodyn.
Each rat was injected with 100 μl of a 20% yeast solution into the plantar surface of the left hind paw. […] Control rats were treated with 10% DMSO alone [n=20]. The pain thresholds of the inflamed and non-inflamed paws were measured by application of a pressure stimulus to the paw and the paw pressure threshold in gram [g] was recorded.

[4] = tested on: carrageenan or yeast inflammatory stimulus; test: Separate tests using carrageenan or yeast as the inflammatory stimulus; type: in vivo

## 4-(4-chlorophenyl)-4-hydroxy-N,N-dimethyl-α,α-diphenyl-1-piperidinebutanamide methyl p-toluenesulfonate [Example 19]
[1]
  Formalin-Induced Flinching (Late Phase) % Maximal Efficacy: 69%
  Formalin-Induced Flinching (Late Phase) ED50: 93 μg i. paw

## CCN(C)C(=O)C(CCN1CCC(O)(c2ccc(Cl)cc2)CC1)(c1ccccc1)c1ccccc1 [Compound 17A]
Human δ receptor
  Ki: 0.123 µM
Human κ receptor
  Ki: 1.42 µM
Human μ opiate receptors
  Ki: 0.004 µM
[1]
  Formalin-Induced Flinching (Late Phase) % Maximal Efficacy: 91%
  Formalin-Induced Flinching (Late Phase) ED50: 4.8 μg i. paw

## O=C(N1CCCC1)C(CCN1CCC(O)(c2ccc(Cl)cc2)CC1)(c1ccccc1)c1ccccc1 [Compound 17B]
Human δ receptor
  Ki: 0.068 µM
Human κ receptor
  Ki: 2.23 µM
Human μ opiate receptors
  Ki: 0.0022 µM
[1]
  Formalin-Induced Flinching (Late Phase) % Maximal Efficacy: 86%
  Formalin-Induced Flinching (Late Phase) ED50: 4.9 μg i. paw

## O=C(N1CCCCC1)C(CCN1CCC(O)(c2ccccc2)CC1)(c1ccccc1)c1ccccc1 [Compound 17C]
Human δ receptor
  Ki: 0.015 µM
Human κ receptor
  Ki: 4.68 µM
Human μ opiate receptors
  Ki: 0.0025 µM
[1]
  Formalin-Induced Flinching (Late Phase) % Maximal Efficacy: 87%
  Formalin-Induced Flinching (Late Phase) ED50: 19 μg i. paw

## CCOC(=O)C1(c2ccccc2)CCN(CCC(C#N)(c2ccccc2)c2ccccc2)CC1 [Deiphenoxylate]
Human δ receptor; read-out: In Vitro Binding Affinities Human Opiate Receptors Ki, δ
  Ki: 0.315 µM
[1]
  Formalin-Induced Flinching (Late Phase) % Maximal Efficacy: 61%
  Formalin-Induced Flinching (Late Phase) ED50: 158 μg i. paw

## N#CC(CCN1CCC(C(=O)O)(c2ccccc2)CC1)(c1ccccc1)c1ccccc1 [Difenoxin]
Human δ receptor
  Ki: 0.056 µM
Human μ opiate receptors
  Ki: 0.013 µM
[1]
  Formalin-Induced Flinching (Late Phase) % Maximal Efficacy: 90%
  Formalin-Induced Flinching (Late Phase) ED50: 33 μg i. paw

## CNC(=O)C(CCN1CCC(O)(c2ccc(Cl)cc2)CC1)(c1ccccc1)c1ccccc1.Cl [Example 18, 4-(p-chlorophenyl)-4-hydroxy-N-methyl-α,α-diphenyl-1-piperidinebutyramide hydrochloride]
Human δ receptor
  Ki: 0.2 µM
Human κ receptor
  Ki: > 1 µM
Human μ opiate receptors
  Ki: 0.0011 µM
[1]
  Formalin-Induced Flinching (Late Phase) % Maximal Efficacy: 88%
  Formalin-Induced Flinching (Late Phase) ED50: 3.2 μg i. paw

## CN(C)C(=O)C(CCN1CCC(O)(c2ccc(Cl)cc2)CC1)(c1ccccc1)c1ccccc1 [Ioperamide]
[1]
  Formalin-Induced Flinching (Late Phase) % Maximal Efficacy: 97%
  Formalin-Induced Flinching (Late Phase) ED50: 6 μg i. paw

## CN(C)C(=O)C(CCN1CCC(O)(c2ccc(Cl)cc2)CC1)(c1ccccc1)c1ccccc1 [loperamide, 4-(p-chlorophenyl)-4-hydroxy-N-N-dimethyl-α,α-diphenyl-1-piperidinebutyramide hydrochloride]
catalepsy; IM loperamide (0.5 mg) group, hydrochloride
  Time to Dismount from Bar (sec) Before Drug: 1 sec (4×) and 1 ± 0 sec
catalepsy; IM loperamide (0.5 mg), hydrochloride
  Time to Dismount from Bar (sec) After Drug Treatment (15 min): 1 sec (2×) and 3 sec and 2 sec and 2 ± 1 sec
catalepsy
  catalepsy: no sign of catalepsy
[1]; 100 μg i.paw
  time prior to formalin injection at which administration was still efficacious: up to 6 hours
[1]; 100 μg i.paw, contralateral
  antinociception when injected into the paw contralateral to formalin: failed to produce antinociception
[1]; 100 μg i.paw, ipsilateral
  antihyperalgesia when injected ipsilateral to formalin: exhibited antihyperalgesia activity
[1]; 300 μg i.paw, hydrochloride
  late phase flinching behavior at the highest dose: practically no flinching behavior; also recorded: Full efficacy
[1]; dose 1 μg into the paw
  % Antagonism of Late Phase Flinching: 20 ± 7%
[1]; dose 3 μg into the paw
  % Antagonism of Late Phase Flinching: 53 ± 10%
[1]; dose 10 μg into the paw
  % Antagonism of Late Phase Flinching: 55 ± 15%
[1]; dose 30 μg into the paw
  % Antagonism of Late Phase Flinching: 74 ± 10%
[1]; dose 100 μg into the paw
  % Antagonism of Late Phase Flinching: 75 ± 11%
[1]; dose 300 μg into the paw
  % Antagonism of Late Phase Flinching: 97 ± 2%
[1]; doses of 0.3, 3, 30 and 300 μg
  effects on early phase flinching: no significant effects
[1]
  A50, antinociception in the second phase of flinching: 6 µg
Acute pain models
  analgesic effects in acute pain models: little or no analgesic effects
[2]
  acetic acid-induced writhing: suppression
[3]; dose 10 μg/100 μl/rat in 10% DMSO
  Paw Pressure Threshold: 66 ± 15 g
[3]; dose 50 μg/100 μl/rat in 10% DMSO
  Paw Pressure Threshold: 124 ± 29 g
[3]; dose 250 μg/100 μl/rat in 10% DMSO
  Paw Pressure Threshold: 153 ± 25 g
[4]
  antihyperalgesic activity: demonstrated antihyperalgesic activity

## CN1CC[C@]23c4c5ccc(O)c4O[C@H]2[C@@H](O)C=C[C@H]3[C@H]1C5.O=S(=O)(O)O [morphine, morphine sulfate]
catalepsy; IM morphine (3 mg) group, sulfate
  Time to Dismount from Bar (sec) Before Drug: 1 sec (3×) and 1 ± 1 sec and 2 sec
catalepsy; IM morphine (3 mg), sulfate
  Time to Dismount from Bar (sec) After Drug Treatment (15 min): 37 s and 31 s and 37 ± 11 s and 29 s and 52 s
catalepsy
  catalepsy: significantly more cataleptic
[1]
  A50, antinociception in the second phase of flinching: 72 µg
